The target of the test is T1, human recombinant mGluR5 (Homo sapiens, UniProt P41594).
T1 construct: expressed in transfected cells; host or cells: HEK 293 cell line cultured with tetracycline, hygromycin and geneticin; tetracycline removed 3-7 days before the assay
T1 sequence (P41594 21-1212): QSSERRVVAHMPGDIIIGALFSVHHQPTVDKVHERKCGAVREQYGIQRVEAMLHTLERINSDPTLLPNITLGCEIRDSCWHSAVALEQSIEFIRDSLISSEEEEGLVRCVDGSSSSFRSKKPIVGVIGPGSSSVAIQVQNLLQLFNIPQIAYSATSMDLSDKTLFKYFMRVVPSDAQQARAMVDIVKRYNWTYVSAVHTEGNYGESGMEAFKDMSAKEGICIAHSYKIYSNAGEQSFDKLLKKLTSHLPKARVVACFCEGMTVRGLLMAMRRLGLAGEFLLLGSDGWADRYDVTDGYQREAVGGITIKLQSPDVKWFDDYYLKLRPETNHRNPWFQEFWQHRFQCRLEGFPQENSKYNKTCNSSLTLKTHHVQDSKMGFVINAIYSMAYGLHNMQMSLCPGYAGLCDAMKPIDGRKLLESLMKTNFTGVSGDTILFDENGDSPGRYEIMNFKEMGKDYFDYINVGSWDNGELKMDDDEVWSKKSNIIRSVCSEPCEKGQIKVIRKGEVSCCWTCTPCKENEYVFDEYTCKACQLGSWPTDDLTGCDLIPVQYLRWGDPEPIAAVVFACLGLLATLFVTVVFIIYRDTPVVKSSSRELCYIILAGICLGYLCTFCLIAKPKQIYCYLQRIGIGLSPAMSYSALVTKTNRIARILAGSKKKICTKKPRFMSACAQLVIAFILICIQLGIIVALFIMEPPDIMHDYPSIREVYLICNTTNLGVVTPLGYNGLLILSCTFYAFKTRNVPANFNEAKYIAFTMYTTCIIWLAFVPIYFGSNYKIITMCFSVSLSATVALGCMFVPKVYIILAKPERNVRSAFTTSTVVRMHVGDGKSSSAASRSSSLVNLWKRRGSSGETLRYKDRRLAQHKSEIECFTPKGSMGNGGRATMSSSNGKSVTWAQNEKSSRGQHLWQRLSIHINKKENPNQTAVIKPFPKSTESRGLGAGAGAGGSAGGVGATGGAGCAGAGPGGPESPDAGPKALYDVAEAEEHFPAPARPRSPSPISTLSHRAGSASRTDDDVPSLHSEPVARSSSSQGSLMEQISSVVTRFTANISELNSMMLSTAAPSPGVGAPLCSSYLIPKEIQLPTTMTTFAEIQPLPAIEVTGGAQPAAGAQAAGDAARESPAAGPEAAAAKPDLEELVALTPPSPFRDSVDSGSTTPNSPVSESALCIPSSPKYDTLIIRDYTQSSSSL
In words: positive modulation of mGluR5, calcium based FLIPR assay in HEK 293 cells. As to conditions: HEK 293 cell line expressing human recombinant mGluR5; EC50 of the modulation of the glutamate response (glutamate approx. 5% basal stimulation); peak height of Ca release fluorescence signal. Here is the method: The positive modulation of mGluR5 is measured in a HEK 293 cell line expressing human recombinant mGluR5 and is detected with calcium based FLIPR assay. The cells are cultured with DMEM supplemented with 10% FCS, 2 μg/mL tetracycline, 100 μg/mL hygromycin and 500 μg/mL gneticin. The cell culture media is exchanged for tetracycline-free cell culture media 3-7 days before the assay. One day before the assay the cell culture medium is exchanged to DMEM without glutamine and phenol red and supplemented with 10% FCS, 100 μg/mL hygromycin and 500 μg/mL geneticin. On the assay day, the medium of the subconfluent cultures is removed and the cells are detached by addition of 2.5 ml EDTA (0.02%) per 175 cm2 culture flask for 1 minute. The cells are resuspend in Ringer solution (140 mM NaCl, 5 mM KCl, 2.5 mM CaCl2, 1.5 mM MgCl2, 5 mM Glucose, 10 mM Hepes; adjusted to pH 7.4 with NaOH), pooled and Ringer solution added to adjust the volume to 50 mL. The cell suspension is centrifuged for […] at 1500 U/min (425 g). The supernatant is removed and the cells washed a second time with 50 ml fresh Ringer solution and centrifuged again as before. The supernatant is again removed and the pellet resuspended in Ringer solution to 1,000,000 cells/ml (1×10^6 cells/mL). The cells are plated onto BD BioCoat Poly-D-Lysine 384 well plates (20.000 cells/well; 20 μl/well). The lid covered plates are then incubated until use at 37° C./10% CO2. For dye loading, 20 μl of Calcium-4 assay kit solution (prepared according to the manufacturer's description in Ringer solution) are added to the cells and the plates are incubated for 80 min 37° C. and then 10 min at room temperature.
Controls, Compound Dilution and Assay Execution:
Each assay plate contained wells with “high” and “low” controls:
Low controls 1% DMSO/ringer solution+basal glutamate activation (defined as 100% CTL).
High controls 10 μM CDPPB+basal glutamate activation (defined as 200% CTL).
Test compounds are dissolved and diluted in DMSO to 100-fold the desired concentrations. In a second step, the compounds are diluted in Ringer solution such that the compounds are 4-fold more concentrated than the desired final assay concentration. The final DMSO concentration was 1%.
20 μl of each compound solution are then transferred to the assay plate and the Ca2+ kinetic is measured to determine any intrinsic compound activity. After 5 min incubation in the FLIPR device, the second stimulation with 20 μl of glutamate in Ringer solution (glutamate concentration adjusted to approximately 5% basal stimulation of the maximal possible glutamate effect) is added and the kinetic Ca2+ response of the wells was measured for the modulation effect.
The peak height of the Ca release related fluorescence signal (9-66) is used for the EC50. The EC50 of the modulation is calculated over a nonlinear regression with GraphPad Prism (Table 1).
With `O=C(Cn1nc(-c2ccc(F)cc2)nc1-c1ccc(F)cc1)N1CCN(c2ncccn2)CC1` [Example 07.01.01., 2-(3,5-Bis-(4-fluoro-phenyl)-(1,2,4)triazol-1-yl)-1-(4-pyrimidin-2-yl-piperazin-1-yl)-ethanone], the EC50 (as a rule, the concentration that produces a half-maximal response) turned out to be 24 nM.

For the compound `O=C(Cn1nc(-c2ccc(F)cc2)nc1-c1ccc(F)cc1)N1CCN(c2ccccn2)CC1` [Example 07.01.02.], the EC50 was found to be 56 nM.

On to `O=C(Cn1nc(-c2ccc(F)cc2)nc1-c1ccc(F)cc1)N1CCN(c2cc(Br)ccn2)CC1` [Example 07.01.03.], for which the EC50 worked out at 80 nM.

For `O=C(Cn1nc(-c2ccc(F)cc2)nc1-c1ccc(F)cc1)N1CCN(c2cc(F)ccn2)CC1` [Example 07.01.04.], the EC50 came out at 82 nM.

For the compound `O=C(Cn1nc(-c2ccc(F)cc2)nc1-c1ccc(F)cc1)N1CCN(c2ccnc(F)c2)CC1` [Example 07.01.05.], the EC50 came to 399 nM.

As for `Cc1cc(-c2nc(-c3ccccc3)n(CC(=O)N3CCN(c4ncccn4)CC3)n2)ccc1Br` [Example 07.01.06.], the EC50 was determined as 13 nM.

For the compound `Cc1cc(-c2nc(-c3ccccc3)nn2CC(=O)N2CCN(c3ncccn3)CC2)ccc1Br` [Example 07.01.07.], the half-maximal effective concentration (EC50) is 66 nM.

Turning to `N#Cc1cccnc1N1CCN(C(=O)Cn2nc(-c3ccc(F)cc3)nc2-c2ccc(F)cc2)CC1` [Example 07.02.01., 2-(4-(2-(3,5-Bis-(4-fluoro-phenyl)-(1,2,4)triazol-1-yl)-acetyl)-piperazin-1-yl)-nicotinonitrile], the EC50 stood at 190 nM.

As for `O=C(Cn1nc(-c2ccc(F)cc2)nc1-c1ccc(F)cc1)N1CCN(c2ncccc2C(F)(F)F)CC1` [Example 07.02.02.], the EC50 was found to be 474 nM.

In the case of `COc1cccc(N2CCN(C(=O)Cn3nc(-c4ccc(F)cc4)nc3-c3ccc(F)cc3)CC2)n1` [Example 07.02.03.], the EC50 was found to be 220 nM.

Take `Cc1cccnc1N1CCN(C(=O)Cn2nc(-c3ccc(F)cc3)nc2-c2ccc(F)cc2)CC1` [Example 07.02.04.]: the EC50 was 1060 nM.

With `Cc1ccnc(N2CCN(C(=O)Cn3nc(-c4ccc(F)cc4)nc3-c3ccc(F)cc3)CC2)c1` [Example 07.02.05.], the EC50 is 44 nM.

In the case of `Cc1ccc(N2CCN(C(=O)Cn3nc(-c4ccc(F)cc4)nc3-c3ccc(F)cc3)CC2)nc1` [Example 07.02.06.], the EC50 turned out to be 155 nM.

Regarding `O=C(Cn1nc(-c2ccc(F)cc2)nc1-c1ccc(F)cc1)N1CCN(c2cc(C(F)(F)F)ccn2)CC1` [Example 07.02.07.], the EC50 is 217 nM.

Regarding `N#Cc1ccnc(N2CCN(C(=O)Cn3nc(-c4ccc(F)cc4)nc3-c3ccc(F)cc3)CC2)c1` [Example 07.02.08.], the EC50 was 36 nM.

In the case of `COc1ccc(-c2nc(-c3ccc(OC)cc3)n(CC(=O)N3CCN(c4ncccn4)CC3)n2)cc1` [Example 07.02.09.], the EC50 stood at 61 nM.

Take `COc1ccc(-c2nc(-c3ccc(OC)cc3)n(CC(=O)N3CCN(c4ccccn4)CC3)n2)cc1` [Example 07.02.10.]: the EC50 turned out to be 83 nM.

Consider `COc1ccc(-c2nc(-c3ccc(OC)cc3)n(CC(=O)N3CCN(c4ccc(C)cn4)CC3)n2)cc1` [Example 07.02.11.], for which the EC50 is 375 nM.

For the compound `COc1ccc(-c2nc(-c3ccc(OC)cc3)n(CC(=O)N3CCN(c4ccc(Cl)cn4)CC3)n2)cc1` [Example 07.02.12.], the EC50 was determined as 328 nM.

As for `COc1ccc(-c2nc(-c3ccc(OC)cc3)n(CC(=O)N3CCN(c4ccc(C#N)cn4)CC3)n2)cc1` [Example 07.02.13.], the EC50 turned out to be 1290 nM.

`COc1ccc(-c2nc(-c3ccc(OC)cc3)n(CC(=O)N3CCN(c4ccc(C(F)(F)F)cn4)CC3)n2)cc1` [Example 07.02.14.]: the EC50 stood at 1050 nM.

On to `COc1ccc(-c2nc(-c3ccc(OC)cc3)n(CC(=O)N3CCN(c4cccc(OC)n4)CC3)n2)cc1` [Example 07.02.15.], for which the EC50 was found to be 675 nM.

For the compound `COc1ccc(-c2nc(-c3ccc(OC)cc3)n(CC(=O)N3CCN(c4ncccc4C#N)CC3)n2)cc1` [Example 07.02.16.], the EC50 came out at 266 nM.

With `COc1ccc(-c2nc(-c3ccc(OC)cc3)n(CC(=O)N3CCN(c4ccc(C(N)=O)cn4)CC3)n2)cc1` [Example 07.02.17.], the EC50 turned out to be 644 nM.

Regarding `COc1ccc(-c2nc(-c3ccccc3)n(CC(=O)N3CCN(c4ccccn4)CC3)n2)cc1OC` [Example 07.02.18.], the EC50 was determined as 227 nM.

`COc1ccc(-c2nc(-c3ccccc3)n(CC(=O)N3CCN(c4ncccc4C#N)CC3)n2)cc1OC` [Example 07.02.19.]: the concentration giving a half-maximal response (EC50) was determined as 494 nM.

Consider `COc1ccc(-c2nc(-c3ccccc3)n(CC(=O)N3CCN(c4cc(C)ccn4)CC3)n2)cc1OC` [Example 07.02.20.], for which the EC50 turned out to be 162 nM.

As for `COc1ccc(-c2nc(-c3ccccc3)n(CC(=O)N3CCN(c4ccc(C)cn4)CC3)n2)cc1OC` [Example 07.02.21.], the EC50 amounted to 451 nM.

With `COc1ccc(-c2nc(-c3ccccc3)n(CC(=O)N3CCN(c4ncccc4C(F)(F)F)CC3)n2)cc1OC` [Example 07.02.23.], the EC50 amounted to 1910 nM.

Regarding `COc1ccc(-c2nc(C3CCCCC3)n(CC(=O)N3CCN(c4ncccn4)CC3)n2)cc1` [Example 07.02.24.], the EC50 worked out at 229 nM.

For the compound `COc1ccc(-c2nc(C3CCCCC3)n(CC(=O)N3CCN(c4ccccn4)CC3)n2)cc1` [Example 07.02.25.], the EC50 was 424 nM.

In the case of `COc1ccc(-c2nc(C3CCCCC3)n(CC(=O)N3CCN(c4cc(C)ccn4)CC3)n2)cc1` [Example 07.02.26.], the EC50 amounted to 252 nM.

For the compound `O=C(Cn1nc(-c2ccccc2)nc1-c1ccccc1)N1CCN(c2ccccn2)CC1` [Example 07.02.27.], the EC50 was determined as 353 nM.

As to `Cc1ccnc(N2CCN(C(=O)Cn3nc(-c4ccccc4)nc3-c3ccccc3)CC2)c1` [Example 07.02.28.], the EC50 came to 243 nM.

As for `COc1ccnc(N2CCN(C(=O)Cn3nc(-c4ccc(F)cc4)nc3-c3ccc(F)cc3)CC2)c1` [Example 07.03.01., 2-(3,5-Bis-(4-fluoro-phenyl)-(1,2,4)triazol-1-yl)-1-(4-(4-methoxy-pyridin-2-yl)-piperazin-1-yl)-ethanone], the concentration giving a half-maximal response (EC50) stood at 88 nM.

With `CCOC(=O)c1cccc(N2CCN(C(=O)Cn3nc(-c4ccc(F)cc4)nc3-c3ccc(F)cc3)CC2)c1` [Example 07.03.02.], the EC50 turned out to be 1280 nM.

With `O=C(Cn1nc(-c2ccc(F)cc2)nc1-c1ccc(F)cc1)N1CCN(c2nccc(C(F)(F)F)n2)CC1` [Example 07.03.03.], the EC50 turned out to be 595 nM.

In the case of `O=C(Cn1nc(-c2ccc(F)cc2)nc1-c1ccc(F)cc1)N1CCN(c2ncc(Br)cn2)CC1` [Example 07.03.04.], the EC50 was 50 nM.

Regarding `O=C(Cn1nc(-c2ccc(F)cc2)nc1-c1ccc(F)cc1)N1CCN(c2cccc(F)c2)CC1` [Example 07.03.05.], the EC50 came out at 469 nM.

Consider `N#Cc1cccc(N2CCN(C(=O)Cn3nc(-c4ccc(F)cc4)nc3-c3ccc(F)cc3)CC2)c1` [Example 07.03.06.], for which the EC50 was 350 nM.

In the case of `Cc1cc(C)nc(N2CCN(C(=O)Cn3nc(-c4ccc(F)cc4)nc3-c3ccc(F)cc3)CC2)n1` [Example 07.03.07.], the 50% effective concentration (EC50) was determined as 610 nM.

On to `N#Cc1ccnc(N2CCN(C(=O)Cn3nc(-c4ccc(F)cc4)nc3-c3ccc(F)cc3)CC2)n1` [Example 07.03.08.], for which the EC50 came out at 124 nM.

`O=C(Cn1nc(-c2ccc(F)cc2)nc1-c1ccc(F)cc1)N1CCN(c2cc(Cl)ncn2)CC1` [Example 07.03.09.]: the EC50 worked out at 121 nM.

As for `COc1ccnc(N2CCN(C(=O)Cn3nc(-c4ccc(F)cc4)nc3-c3ccc(F)cc3)CC2)n1` [Example 07.03.10.], the concentration giving a half-maximal response (EC50) worked out at 67 nM.

As for `CN(C)c1cncc(N2CCN(C(=O)Cn3nc(-c4ccc(F)cc4)nc3-c3ccc(F)cc3)CC2)n1` [Example 07.03.11.], the EC50 is 283 nM.

Turning to `O=C(Cn1nc(-c2ccc(F)cc2)nc1-c1ccc(F)cc1)N1CCN(c2cccnn2)CC1` [Example 07.03.12.], the EC50 is 134 nM.

As for `COc1cc(OC)nc(N2CCN(C(=O)Cn3nc(-c4ccc(F)cc4)nc3-c3ccc(F)cc3)CC2)n1` [Example 07.03.13.], the half-maximal effective concentration (EC50) came to 224 nM.

Consider `O=C(Cn1nc(-c2ccc(F)cc2)nc1-c1ccc(F)cc1)N1CCN(c2ncncn2)CC1` [Example 07.03.14.], for which the EC50 worked out at 85 nM.

For the origin of these results see patent US8889677B2, “Substituted triazoles useful as mGlu5 receptor modulators” (Boehringer Ingellheim International GmbH, priority 2012, dated 2014).
